Measured values from paper PMC10743653, “Combined In Silico and In Vitro Analyses to Assess the Anticancer Potential of Thiazolidinedione–Thiosemicarbazone Hybrid Molecules” (International Journal of Molecular Sciences, 2023).

What was measured:
[1] = test system: human red blood cells (RBCs); test: In vitro hemolysis assay; assay type: cell-based; settings: 30 min, 37 °C, at IC50 values for HepG2
Protocol: The hematologic toxicity of the most cytotoxic TZD–TSCs, compounds 2 and 3, was tested via in vitro hemolysis assay, following a 30 min treatment of human RBCs at 37 °C with these compounds.
Human red blood cell (RBC) concentrate was obtained from the Regional Blood Donation and Transfusion Centre (Lublin, Poland). The RBC concentrate (5 mL) was washed three times with sterile PBS and centrifuged at 500 g for 3 minutes. The obtained pellet was suspended in sterile PBS to obtain a 2% suspension, which was subsequently mixed with 1 mL of solution of TZD–TSCs 2 and 3. […] The mixtures were incubated at 37 °C for 30 min and, subsequently, centrifuged at 1400× g for 10 min. The amount of free hemoglobin in the supernatants was measured spectrophotometrically at 405 nm. Negative and positive controls were performed by incubating RBCs with sterile PBS and 0.1% Triton-X, respectively. Each experiment was run in triplicate.

CCD 841 CoTr cells = test: Nitric oxide measurement (Griess), CCD 841 CoTr; assay type: cell-based, human; settings: 200 μg/mL
Protocol: (§1) Nitrate, i.e., a stable end product of NO, was measured in culture supernatants with a spectrophotometric method based on the Griess reaction. Culture supernatants were collected from the cell cultures treated with specific concentrations of the tested compounds (25, 75, 150, and 200 μg/mL, respectively). Briefly, 100 μL of the culture supernatant was placed in 96-well flat-bottomed plates in triplicate and incubated with 100 μL of Griess reagent (1% sulfanilamide/0.1% N-(1-naphthyl)ethylenediamine dihydrochloride) in 3% H3PO4 at room temperature for 10 min. The optical density was measured at 550 nm using a microplate reader. A standard curve was prepared using 0.5–25 μM sodium nitrite (NaNO2) for calibration.

HT29 cells = test: Nitric oxide measurement (Griess), HT29; assay type: cell-based, human; settings: HT29, 200 μg/mL
Protocol: as §1

HepG2 cells [2] = test: ECM cell invasion assay (colorimetric), HepG2; assay type: cell-based, human
Protocol: The anti-invasion effects of 2 and 3 were examined using a Cell Invasion Assay Kit (ECM550, CHEMICON—Millipore Co., Billerica, MA, USA). In brief, 10^5 tumor cells were suspended in medium with 10% FBS and plated into the upper chamber, containing 8 μm pore size polycarbonate membrane precoated with ECMatrix, followed by filling the lower chamber with the same medium, enriched with the investigated compounds. Afterwards, cells were incubated for 24 h and allowed to invade towards the bottom chamber (with medium + 10% FBS). The non-invading cells on the upper membrane surface were removed with a cotton swab and the invasive cells, i.e., cells attached to the lower membrane surface, were stained with 0.1% crystal violet. For colorimetric quantitation, the stained cells were dissolved in 10% acetic acid (200 μL/well) and the obtained solution was transferred to a 96-well plate for spectrometric measurements, at a wavelength of 560 nm.

HepG2 cells [3] = test: Cell cycle analysis (image cytometry, DAPI); assay type: cell-based, human; settings: 24 h at IC50 concentration (2.97 μM); control 6.02 ± 0.21%; mean ± SD
Protocol: HDAC inhibitors, in combination therapy with PPARγ agonists, exert synergistic/additive cytotoxic effects on cancer cells, resulting in proliferation arrest and increased cancerous cell apoptosis.
HepG2 cells were seeded on 6-well culture plates (Corning Inc., NY, USA) at the density of 1 × 10^5 cells/mL and cultured in the respective medium at 37 °C in a humidified atmosphere of 5% CO2. When the cells reached approximately 80–90% confluence, they were treated with 3, at a concentration of IC50, for 24 h. Subsequently, the cells were detached with trypsine, suspended in 250 μL of lysis buffer (Solution 10), supplemented with DAPI (10 μg/mL), and incubated for 5 min at 37 °C. Next, stabilization buffer (Solution 11) was added and the obtained cell suspension was applied on a NC slide and analyzed using a NucleoCounter NC-3000 Image Cytometer equipped with NucleoView software (https://chemometec.com/software/nucleoview/ (accessed on 20 November 2023). Experiments were repeated three times and the measurements in each experiment were run in duplicate.

O=C(C=C1SC(=O)NC1=O)Oc1ccccc1C=NNC(=S)Nc1ccccc1Cl [TZD–TSC 2]
Hemolytic activity (free hemoglobin released) [1]: no specific hemolytic activity
NO production, [NO2^−] (CCD 841 CoTr cells): 0.566 µM
NO production, [NO2^−] (HT29 cells): 0.272 µM
Invasion through artificial ECM model (HepG2 cells [2]; HepG2, 1/10 IC50 to IC50, 24 h): exhibited inhibitory effects
Invasion through artificial ECM model (HepG2 cells [2]; HepG2, lowest concentration tested (1/10 of the IC50), 24 h): did not reduce the number of invaded cells

O=C(C=C1SC(=O)NC1=O)Oc1ccccc1C=NNC(=S)Nc1cccc(Cl)c1 [TZD–TSC 3]
Hemolytic activity (free hemoglobin released) [1]: no specific hemolytic activity
NO production, [NO2^−] (CCD 841 CoTr cells): 0.492 µM
NO production, [NO2^−] (HT29 cells): 0.201 µM
Invasion through artificial ECM model (HepG2 cells [2]; HepG2, 1/10 IC50 to IC50, 24 h): exhibited inhibitory effects
Percentage of HepG2 cells in sub-G1 phase (HepG2 cells [3]): 40.36 ± 3.11%
